Data as given in PMC8344021, “Discovery of Small Molecule Bak Activator for Lung Cancer Therapy” (Theranostics, 2021).

Target: T1, BH3 deletion human Bak mutant protein (ΔBH3) (Homo sapiens, UniProt Q16611, DEL74-90)
T1 construct: His6; made in house; host or cells: Escherichia coli BL21 DE3
Assay: Isothermal titration calorimetry (ITC), BH3 deletion mutant
Format: binding
Procedure: The binding affinity of BKA-073 with Bak protein was examined by isothermal titration calorimetry (ITC) assay as described, [28]. ITC assay was carried out in the auto-iTC200 instrument (MicroCal, GE) at 25 °C. Purified recombinant human or mouse Bak protein was loaded into a 96 Deepwell PP plate. BKA-073 compound was then titrated stepwise into the protein for a total of 16 injections. Reference power and initial delay were set as 5 µCal/sec and 60s, respectively. A string speed of 750 rpm was used for the ITC measurements. The binding constant (Kd) value was determined by fitting the titration curve to a one-site binding mode, using the Origin software provided by the manufacturer.
To confirm the binding of BKA-073 with Bak, we first conducted a competitive fluorescence polarization (FP) assay using purified human Bak protein, fluorescent Bak BH3 domain peptide, and BKA-073 as described, [37]-[40]. […] There are multiple amino acid differences in the BH3 domains between Bak and other Bcl2 family members, which helps to explain why BKA-073 only binds to Bak but not to other Bcl2 family members (i.e. Bax, Bcl2, Bcl-XL, Bcl-w and Mcl-1). In addition to the FP assay, isothermal titration calorimetry (ITC) was also employed to measure Bak/BKA-073 binding. […] In addition to human Bak/BKA-073 binding, we measured mouse Bak/BKA-073 binding using ITC. […]

T1 sequence (Q16611 with tags, fused parts or gaps DEL74-90 limits assumed): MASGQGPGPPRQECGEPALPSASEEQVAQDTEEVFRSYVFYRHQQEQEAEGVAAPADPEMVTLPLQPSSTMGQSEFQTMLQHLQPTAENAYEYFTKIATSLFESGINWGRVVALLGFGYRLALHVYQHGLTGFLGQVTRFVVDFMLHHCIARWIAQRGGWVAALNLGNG

## COc1ccc2nc3ccccc3c(NCCNCC(C)O)c2c1 (stereo not shown) [BKA-073]
  binding to ΔBH3 Bak mutant: failed to bind
